Read-outs that look alike come from different tables or passages of the source.
Assays:
Assay in all cases: microbe, parasite or virus in culture
Format in all cases: cell-based
[1] = system: clinically isolated HIV strain D (D-2-001)
Method: (§1) The compounds were tested in a cellular assay using the MT4-LTR-EGFP cells for anti-viral activity. […] Because of the increasing emergence of drug resistant HIV strains, the present compounds were tested for their potency against clinically isolated HIV strains harboring several mutations. […] The viral strains A, B, C and D contain mutations as indicated below in Table 3.
(§2) The cellular assay was performed according to the following procedure. HIV- or mock-infected MT4-LTR-EGFP cells were incubated for three days in the presence of various concentrations of the compounds according to the invention. Upon infection, the viral tat protein activates the GFP reporter. At the end of the incubation period, the GFP signal was measured. […] The inhibitory activity of the compound was monitored on the virus-infected cells and was expressed as EC50. These values represent the amount of the compound required to protect 50% of the cells from virus infection.

[2] = system: clinically isolated HIV strain A (A-2-001)
Method: as §1, §2

[3] = system: clinically isolated HIV strain C (C-2-001)
Method: as §1, §2

[4] = system: clinically isolated HIV strain B (B-2-001)
Method: as §1, §2

[5] = system: wild type laboratory HIV strain (WT IIIB-2-001); conditions: Human immunodeficiency virus 1, IIIB, 72 h, read-out: Virus Strains WT-IIIB-2-001
Method: as §1, §2

[6] = Human immunodeficiency virus 1, 72 h, read-out: Virus Strains D-2-001
[7] = Human immunodeficiency virus 1, 72 h, read-out: Virus Strains A-2-001
[8] = Human immunodeficiency virus 1, 72 h, read-out: Virus Strains C-2-001
[9] = Human immunodeficiency virus 1, 72 h, read-out: Virus Strains B-2-001

Row | SMILES | EC50 ([1]; Human immunodeficiency virus 1, read-out: pEC50-D (converted)) [nM] | EC50 ([2]; Human immunodeficiency virus 1, read-out: pEC50-A (converted)) [nM] | EC50 ([3]; Human immunodeficiency virus 1, read-out: pEC50-C (converted)) [nM] | EC50 ([4]; Human immunodeficiency virus 1, read-out: pEC50-B (converted)) [nM] | EC50 [1, 6] [nM] | EC50 [5] [nM] | EC50 [2, 7] [nM] | EC50 [3, 8] [nM] | EC50 [4, 9] [nM]
1 | CC(C)CN(C[C@@H](O)[C@H](Cc1ccccc1)NC(=O)O[C@H]1CO[C@H]2OCC[C@H]21)S(=O)(=O)c1ccc(N)cc1 [TMC 114, (3R,3aS,6aR)-hexahydrofuro[2,3-b]furan-3-yl N-[(1S,2R)-1-benzyl-2-hydroxy-3-(N 1-isobutylsulfanilamido)propyl]carbamate, reference compound] | 4790 | 7.94 | 89.1 | 851 | – | – | – | – | –
2 | CC(C)CN1CC[C@H](Nc2cc(S(=O)(=O)N(CC(C)C)C[C@@H](O)[C@H](Cc3ccccc3)NC(=O)O[C@H]3CO[C@H]4OCC[C@H]43)ccc2N)C1 (stereo in doubt) [Compound 83, (3-{[4-amino-3-(1-isobutyl-pyrrolidin-3-ylamino)-benzenesulfonyl]-isobutyl-amino}-1-benzyl-2-hydroxy-propyl)-carbamic acid hexahydro-furo-[2,3-b]furan-3-yl ester] | – | – | – | – | 75.9 | 26.3 | 3.39 | 16.6 | 129
3 | CC(C)CN(C[C@@H](O)[C@H](Cc1ccccc1)NC(=O)O[C@H]1CO[C@H]2OCC[C@H]21)S(=O)(=O)c1ccc(N)c(N[C@H]2CCN(C3CCCC3)C2)c1 (stereo in doubt) [Compound 79, (3-{[4-amino-3-(1-cyclopentyl-pyrrolidin-3-ylamino)-benzene-sulfonyl]-isobutyl-amino}-1-benzyl-2-hydroxy-propyl)-carbamic acid hexahydrofuro[2,3-b]furan-3-yl ester] | – | – | – | – | 38.9 | 66.1 | 20.9 | 50.1 | 275
